Here are results for 2 compounds from patent US11166916B2, “Carbon quantum dots and preparation process and use thereof” (CHANG GUNG UNIVERSITY, priority 2019, dated 2021).

Assay in all cases: Antimicrobial test, MIC90 by spread plate count
Experiment [1] concerns Escherichia coli. The format is cell-based. The note with it: BCRC10316, Escherichia coli BCRC 10316. The procedure: (§1) A respective one of Staphylococcus aureus, Escherichia coli, Pseudomonas aeruginosa, Salmonella enteritidis, and MRSA was inoculated into a LB broth, followed by incubation in a thermostatic shaking incubator (37° C.) until an OD600 value of 1.0 was reached. The respective resultant culture was centrifuged at 3,000 g for 10 minutes, and the cell pellet thus obtained was washed with a 5 mM phosphate buffer (pH 7.4), followed by suspending with a LB broth. The resultant bacterial broths of Staphylococcus aureus, Escherichia coli, Pseudomonas aeruginosa, Salmonella enteritidis, and MRSA (each of such five bacterial suspensions contained a bacterial concentration of 1×10^4 CFU/mL) were used for the following experiment.
(§2) A suitable amount of a respective one of CQD^DA, CQD^SPD, CQD^DA-SPM, CQD^DA-SPD, CQD^DA-PUT, CQD^DA-SPM-1, and CQD^DA-SPM-2 was freeze-dried, and the respective resultant freeze-dried powder was dissolved in deionized water, followed by dilution with a 5 mM phosphate buffer (pH 7.4), so as to obtain seven CQD solutions having different concentrations (0.05-50 μg/mL).
(§3) A respective one of the five CQD solutions (i.e., CQD^DA, CQD^SPD, CQD^DA-SPM, CQD^DA-SPD, and CQD^DA-PUT solutions), the DA solutions, and the SPM solutions and a respective one of the bacterial broths of Staphylococcus aureus and Escherichia coli were mixed in a 5 mM phosphate buffer (pH 7.4), and the respective resultant mixture was incubated in a thermostatic shaking incubator (37° C.) for 1 hour, followed by addition of a suitable amount of LB broth. After incubation with shaking for 18 hours, the respective resultant culture was subjected to serial dilution with a LB broth, so as to obtain seven dilutions (10^1 to 10^7).
(§4) Thereafter, 1 μL of the respective dilution was subjected to spread plate procedure. The number of surviving bacteria was counted, and the minimum inhibitory concentration to inhibit the growth of 90% of a bacterial isolate (MIC90) was determined according to the technique well known to and routinely used by one skilled in the art.
(§5) A respective one of the four CQD solutions (i.e., CQD^DA, CQD^DA-SPM, CQD^DA-SPM-1, and CQD^DA-SPM-2 solutions) and the SPM solutions and a respective one of bacterial broths of Staphylococcus aureus, Escherichia coli, Pseudomonas aeruginosa, Salmonella enteritidis, and MRSA were mixed in a 5 mM phosphate buffer (pH 7.4), and the respective resultant mixture was subjected to antimicrobial activity analysis according to the method described in section E of this example.

Experiment [2] has as its system Pseudomonas aeruginosa. It counts as cell-based. The note with it: ATCC10145; Table 4; Pseudomonas aeruginosa ATCC 10145. Here is the method: as §1, §2, §3, §4, §5
The subject of experiment [3] is Salmonella enteritidis. It counts as cell-based. To be noted: Salmonella enterica, ATCC 13076 / ENTERITIDIS; Table 4; Salmonella enteritidis ATCC 13076. Here is the method: as §1, §2, §3, §4, §5
Experiment [4] has as its system Staphylococcus aureus. The format is cell-based. The note with it: ATCC9144, Staphylococcus aureus ATCC 9144. The procedure:
as §1, §2, §3, §4, §5

In experiment [5] the test system is MRSA. It counts as cell-based, Methicillin-resistant Staphylococcus aureus. To be noted: Staphylococcus aureus, ATCC 33592 / MRSA; Table 4; MRSA ATCC 33592. The procedure: as §1
A suitable amount of a respective one of CQD^DA, CQD^SPD, CQD^DA-SPM, CQD^DA-SPD, CQD^DA-PUT, CQD^DA-SPM-1, and CQD^DA-SPM-2 was freeze-dried, and the respective resultant freeze-dried powder was dissolved in deionized water, followed by dilution with a 5 mM phosphate buffer (pH 7.4), so as to obtain seven CQD solutions having different concentrations (0.05-50 μg/mL). […]

Where [6] appears, read: Table 3, 1 h in 5 mM phosphate buffer pH 7.4, then 18 h in LB broth.

≈ marks a conversion by molar mass, not a printed value.

By MIC90 is commonly meant the lowest concentration that inhibits either 90% of growth or 90% of the strains tested, depending on the study. High values mean weaker potency, low ones greater potency. Take `NCCCNCCCCNCCCN` [SPM, spermine]: the MIC90 in experiment [1] (setting [6]) stood at 2350 µg/mL (≈ 11.6 mM); in experiment [1] (Table 4), 2350 µg/mL (≈ 11.6 mM); in experiment [2], 2450 µg/mL (≈ 12.1 mM); in experiment [3] it was 2660 µg/mL (≈ 13.1 mM); in experiment [4] (setting [6]), 658 µg/mL (≈ 3.25 mM); in experiment [4] (Table 4), 658 µg/mL (≈ 3.25 mM). The MIC90 in experiment [5] was found to be 1550 µg/mL (≈ 7.67 mM).
With `NCCc1ccc(O)c(O)c1` [DA, dopamine], the MIC90 in experiment [1] (setting [6]) was 512 µg/mL (≈ 3.34 mM); in experiment [4] (setting [6]), 250 µg/mL (≈ 1.63 mM).
